Laboratory results published in US11667602B2, “Compounds and their use” (AstraZeneca AB, priority 2020, dated 2023).
Read-outs that look alike come from different tables or passages of the source.

Target: T1, human RXFP1 (Homo sapiens, UniProt Q9HBX9)
T1 sequence (Q9HBX9 1-757): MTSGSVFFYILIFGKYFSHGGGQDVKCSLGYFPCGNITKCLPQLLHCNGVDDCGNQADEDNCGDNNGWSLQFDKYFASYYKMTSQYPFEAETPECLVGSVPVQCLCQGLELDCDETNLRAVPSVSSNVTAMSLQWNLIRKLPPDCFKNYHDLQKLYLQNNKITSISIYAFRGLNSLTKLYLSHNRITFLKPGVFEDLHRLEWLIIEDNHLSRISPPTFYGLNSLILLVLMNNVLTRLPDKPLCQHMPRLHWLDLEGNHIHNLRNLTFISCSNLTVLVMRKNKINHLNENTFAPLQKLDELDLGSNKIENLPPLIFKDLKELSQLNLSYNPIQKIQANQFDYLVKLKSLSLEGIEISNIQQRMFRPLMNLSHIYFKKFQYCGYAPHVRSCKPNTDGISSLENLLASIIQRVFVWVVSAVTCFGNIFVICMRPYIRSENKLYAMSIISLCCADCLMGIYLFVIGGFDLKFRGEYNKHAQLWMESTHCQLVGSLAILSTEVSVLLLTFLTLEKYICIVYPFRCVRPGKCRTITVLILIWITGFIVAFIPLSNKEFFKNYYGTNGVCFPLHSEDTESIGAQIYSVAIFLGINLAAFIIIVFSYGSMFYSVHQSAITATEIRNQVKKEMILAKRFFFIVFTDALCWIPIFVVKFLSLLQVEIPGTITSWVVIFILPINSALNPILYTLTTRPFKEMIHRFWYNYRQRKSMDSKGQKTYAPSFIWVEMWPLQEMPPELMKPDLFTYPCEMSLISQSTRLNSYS
Test: RXFP1 Hu cAMP (Test A)
Assay type: cell-based
Set-up: expressed in transfected cells; host or cells: Jump-In T-REx CHO-K1 cells (ThermoFisher), induced with 10 ng/ml doxycycline for 24 h
In short: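 Doxycycline-induced (10 ng/ml, 24 h) CHO-K1 cells stably expressing human RXFP1; cAMP read by competitive HTRF after 2 h at room temperature, with 0.5 mM IBMX final.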

[1] = RXFP1 Hu cAMP, read-out: Test A EC50

| EC50 [1] | Test A Sinf (RXFP1 Hu cAMP) | SMILES | EC50 (Test A EC50, RXFP1 Hu cAMP) |
| --- | --- | --- | --- |
| > 40000 nM | – | COc1cc(F)c(O[C@H]2CC[C@@](CO)(C(=O)O)CC2)cc1C(=O)NC1COCC1C(=O)NCC(C)(C)C (single isomer, unassigned) [Example 578, (1R,4s)-4-(2-Fluoro-4-methoxy-5-(((3S*,4R*)-4-(neopentylcarbamoyl)tetrahydrofuran-3-yl)carbamoyl)phenoxy)-1-(hydroxymethyl)cyclohexane-1-carboxylic acid] | – |
| – | 118% | COc1cc(F)c(OC2CCC(C)(C(=O)O)CC2)cc1C(=O)NC1COCC1C(=O)NCC1(C)CCC1 [Example 576, (1R,4s)-4-(2-Fluoro-4-methoxy-5-(((3S*,4R*)-4-(((1-methylcyclobutyl)methyl)carbamoyl)tetrahydrofuran-3-yl)carbamoyl)phenoxy)-1-methylcyclohexane-1-carboxylic acid] | – |
| – | 119% | COc1cc(F)c(O[C@H]2CC[C@@](C)(C(=O)O)CC2)cc1C(=O)N[C@@H]1[C@H]2CC[C@H](C2)[C@@H]1C(=O)NCC(C)(C)CO [Example 612] | – |
| 700 nM | 107% | COc1cc(F)c(OC2CCC(CO)(C(=O)O)CC2)cc1C(=O)NC1CC(OC)CC1C(=O)NCC1(C)CCC1 (single isomer, unassigned) [Example 551, (1R,4s)-4-(2-Fluoro-4-methoxy-5-(((1S*,2R*,4R*)-4-methoxy-2-(((1-methylcyclobutyl)methyl)carbamoyl)cyclopentyl)carbamoyl)phenoxy)-1-(hydroxymethyl)cyclohexane-1-carboxylic acid] | – |
| 37 nM | 117% | COc1cc(F)c(O[C@H]2CC[C@@H](C(N)=O)CC2)cc1C(=O)N[C@@H]1[C@@H]2CC[C@@H](C2)[C@@H]1C(=O)Nc1cccc(S(F)(F)(F)(F)F)c1 [Example 511, (1S,2S,3R,4R)-3-(5-(((1s,4S)-4-Carbamoylcyclohexyl)oxy)-4-fluoro-2-methoxybenzamido)-N-(3-(pentafluoro-A6-sulfaneyl)phenyl)bicyclo[2.2.1]heptane-2-carboxamide] | – |
| 110 nM | 104% | COc1cc(F)c(OC2CCC(N)(C(=O)O)CC2)cc1C(=O)N[C@@H]1[C@H]2CC[C@H](C2)[C@@H]1C(=O)Nc1cccc(S(=O)(=O)C(F)(F)F)c1 (stereo partly drawn) [Example 458, 1-Amino-4-(2-fluoro-4-methoxy-5-(((1S,2R,3S,4R)-3-((3-((trifluoromethyl)sulfonyl)phenyl)carbamoyl)bicyclo[2.2.1]heptan-2-yl)carbamoyl)phenoxy)cyclohexane-1-carboxylic acid] | – |
| – | 91% | COc1cc(F)c(OC[C@H]2C[C@H](C(=O)O)C2)cc1C(=O)N[C@@H]1[C@@H]2CC[C@@H](C2)[C@@H]1C(=O)Nc1cccc(S(=O)(=O)C(F)(F)F)c1 [Example 472, (1R,3r)-3-((2-Fluoro-4-methoxy-5-(((1R,2R,3S,4S)-3-((3-((trifluoromethyl)sulfonyl)phenyl)carbamoyl)bicyclo[2.2.1]heptan-2-yl)carbamoyl)phenoxy)methyl)cyclobutane-1-carboxylic acid] | – |
| 890 nM | 99% | COc1cc(F)c(O[C@H]2CC[C@@](C)(C(=O)O)CC2)cc1C(=O)N[C@@H]1[C@H]2CC[C@H](C2)[C@@H]1C(=O)NC1CCC1 [Example 598] | – |

Continued, molecule first:

| SMILES | EC50 [1] | Test A Sinf (RXFP1 Hu cAMP) | EC50 (Test A EC50, RXFP1 Hu cAMP) |
| --- | --- | --- | --- |
| COc1cc(F)c(O[C@H]2CC[C@](CC#N)(C(=O)O)CC2)cc1C(=O)N[C@@H]1[C@H]2CC[C@H](C2)[C@@H]1C(=O)NCC1(C)CCC1 [Example 423, (1R,4r)-1-(Cyanomethyl)-4-(2-fluoro-4-methoxy-5-(((1S,2R,3S,4R)-3-(((1-methylcyclobutyl)methyl)carbamoyl)bicyclo[2.2.1]heptan-2-yl)carbamoyl)phenoxy)cyclohexane-1-carboxylic acid] | – | 89% | – |
| COc1cc(F)c(OCc2ccccc2C(=O)O)cc1C(=O)N[C@H]1[C@@H](C(=O)Nc2cccc(S(=O)(=O)C(F)(F)F)c2)[C@@H]2C=C[C@H]1C2 (racemic) [Example 448, rac-2-((2-Fluoro-4-methoxy-5-(((1R,2R,3S,4S)-3-((3-((trifluoromethyl)sulfonyl)phenyl)carbamoyl)bicyclo[2.2.1]hept-5-en-2-yl)carbamoyl)phenoxy)methyl)benzoic acid] | 2600 nM | 77% | – |
| COc1cc(C#N)c(O[C@H]2CC[C@@](C)(C(=O)O)CC2)cc1C(=O)N[C@@H]1[C@H]2CC[C@H](C2)[C@@H]1C(=O)NC[C@@H](C)c1ccccc1 [Example 125] | 16 nM | 116% | – |
| COCc1cc(OC)c(C(=O)N[C@@H]2[C@H]3CC[C@H](C3)[C@@H]2C(=O)NCC2(C)CCC2)cc1O[C@H]1CC[C@@](C)(C(=O)O)CC1 [Example 402] | – | 131% | 620 nM |
| COc1cc(F)c(-c2ccc(C(N)(CO)CO)cc2)cc1C(=O)N[C@@H]1[C@H]2CC[C@H](C2)[C@@H]1C(=O)Nc1cccc(S(=O)(=O)C(F)(F)F)c1 [Example 265, (1R,2S,3R,4S)-3-(4′-(2-Amino-1,3-dihydroxypropan-2-yl)-6-fluoro-4-methoxy-[1,1′-biphenyl]-3-carboxamido)-N-(3-((trifluoromethyl)sulfonyl)phenyl)bicyclo[2.2.1]heptane-2-carboxamide] | – | 78% | – |
| COc1cc(F)c(O[C@H]2CC[C@](C)(C(=O)O)CC2)cc1C(=O)NC1[C@H]2CC[C@H](C2)[C@@H]1C(=O)Nc1cccc(S(=O)(=O)C(F)(F)F)c1 (stereo partly shown) [Example 445] | – | 101% | – |
| O=C(O)c1ccc(-c2cc(C(=O)N[C@H]3[C@@H](C(=O)Nc4cccc(S(=O)(=O)C(F)(F)F)c4)[C@@H]4C=C[C@H]3C4)ccc2F)cc1 (racemic) [Example 305, rac-2′-Fluoro-5′-(((1R,2R,3S,4S)-3-((3-((trifluoromethyl)sulfonyl)phenyl)carbamoyl)bicyclo[2.2.1]hept-5-en-2-yl)carbamoyl)-[1,1′-biphenyl]-4-carboxylic acid] | > 40000 nM | – | – |
| COc1cc(F)c(O[C@H]2CC[C@@](C)(C(N)=O)CC2)cc1C(=O)N[C@@H]1[C@@H]2CC[C@@H](C2)[C@@H]1C(=O)NCC1(C)CCC1 [Example 421, (1S,2S,3R,4R)-3-(5-(((1s,4S)-4-Carbamoyl-4-methylcyclohexyl)oxy)-4-fluoro-2-methoxybenzamido)-N-((1-methylcyclobutyl)methyl)bicyclo[2.2.1]heptane-2-carboxamide] | 44 nM | 96% | – |
| CCC(C)(C)NC(=O)c1ccc(Cl)cc1NC(=O)c1cc(O[C@H]2CC[C@@](C)(C(=O)O)CC2)c(C#N)cc1OC [Example 163] | 67 nM | 151% | – |
| COc1cc(C#N)c(O[C@H]2CC[C@@](C)(C(=O)O)CC2)cc1C(=O)Nc1cc(C)ccc1C(=O)NCc1cccc(F)c1 [Example 166, (1s,4s)-4-(2-Cyano-5-((2-((3-fluorobenzyl)carbamoyl)-5-methylphenyl)carbamoyl)-4-methoxyphenoxy)-1-methylcyclohexane-1-carboxylic acid] | 580 nM | 137% | – |
| COc1cc(F)c(O[C@H]2CC[C@@](C)(C(=O)O)CC2)cc1C(=O)N[C@@H]1[C@@H]2CC[C@@H](C2)[C@@H]1C(=O)Nc1cccc(S(=O)(=O)C(F)(F)F)c1 (racemic) [Example 367] | 3.2 nM | 110% | – |
| COc1cc(C#N)c(O[C@H]2CC[C@@](C)(C(=O)O)CC2)cc1C(=O)Nc1cc(C)ccc1C(=O)N[C@H]1C[C@@H](C)C1 [Example 171] | 440 nM | 119% | – |
| COc1cc(F)c([C@H]2CC[C@H](C(=O)O)CC2)cc1C(=O)N[C@@H]1[C@H]2CC[C@H](C2)[C@@H]1C(=O)Nc1cccc(S(=O)(=O)C(F)(F)F)c1 [Example 269, (1R,4r)-4-(2-fluoro-4-methoxy-5-(((1S,2R,3S,4R)-3-((3-((trifluoromethyl)sulfonyl)phenyl)carbamoyl)bicyclo[2.2.1]heptan-2-yl)carbamoyl)phenyl)cyclohexane-1-carboxylic acid] | 2900 nM | 44% | – |
| COc1cc(-c2cc(C(=O)N[C@@H]3[C@H]4CC[C@H](C4)[C@@H]3C(=O)Nc3cccc(S(=O)(=O)C(F)(F)F)c3)c(OC)cc2F)ccc1CCC(=O)O [Example 259, 3-(2′-Fluoro-3,4′-dimethoxy-5′-(((1S,2R,3S,4R)-3-((3-((trifluoromethyl)sulfonyl)phenyl)carbamoyl)bicyclo[2.2.1]heptan-2-yl)carbamoyl)-[1,1′-biphenyl]-4-yl)propanoic acid] | 58 nM | 97% | – |
| COc1cc(F)c(-c2ccc(CCS(N)(=O)=O)cc2)cc1C(=O)N[C@H]1[C@H]2CC[C@H](C2)[C@H]1C(=O)Nc1cccc(S(=O)(=O)C(F)(F)F)c1 (single isomer, unassigned) [Example 327] | > 40000 nM | – | – |
